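Grown in 96-well plates, cells were treated for 48 hours with each compound at five concentrations. Insufficient inhibition: endpoint recorded as highest concentration tested. GI50 marks 50% less growth. The concentration for full growth arrest is given as TGI.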

Some test systems named below: PC-3 prostate; HCT-15 colon; SR leukemia; SF-295 CNS; U251 CNS; HOP-62 NSCLC; EKVX NSCLC; SK-MEL-28 melanoma; UACC-62 melanoma; M14 melanoma.
What all share (assay): inhibition of tumour cell growth, NCI panel, 48 h

With `COc1cc(-c2nc(SCCC(C)C)nc(Nc3ccc(S(N)(=O)=O)cc3)c2C#N)cc(OC)c1OC`, the GI50 in the assay on PC-3 prostate is 2.72 µM; with HCT-15 colon it was 2.4 µM; with SR leukemia, 1.91 µM; in the assay with SF-295 CNS, 2.71 µM; with U251 CNS, 3.17 µM; in the assay with HOP-62 NSCLC, 4.12 µM. Also, the GI50 was 3.42 µM in the assay with EKVX NSCLC, 4.04 µM in the assay on SK-MEL-28 melanoma, 3 µM in the assay with UACC-62 melanoma and 2.9 µM in the assay with M14 melanoma. Also, the TGI was over 100 µM in the assay with PC-3 prostate; over 100 µM in the assay on HCT-15 colon; 6.86 µM in the assay with SR leukemia; 7.35 µM in the assay with SF-295 CNS; over 100 µM in the assay on U251 CNS; over 100 µM in the assay with HOP-62 NSCLC. For the same molecule, the TGI in the assay with EKVX NSCLC is over 100 µM; in the assay with SK-MEL-28 melanoma it was over 100 µM; in the assay on UACC-62 melanoma it was 22.9 µM; with M14 melanoma, 24.7 µM.

For the molecule `Cc1cc(N2CCOCC2)cc2[nH]c(-c3c(NC[C@@H](O)c4cccc(Cl)c4)cc[nH]c3=O)nc12`, the GI50 was 3.7 µM with PC-3 prostate; 2.08 µM in the assay with HCT-15 colon; 0.295 µM in the assay with SR leukemia; 2.72 µM with SF-295 CNS; 1.65 µM with U251 CNS; 2.16 µM in the assay on HOP-62 NSCLC. Further, the GI50 was 1.62 µM in the assay with EKVX NSCLC, 2.15 µM in the assay on SK-MEL-28 melanoma, 2.36 µM with UACC-62 melanoma and 0.925 µM with M14 melanoma. In addition, the TGI in the assay on PC-3 prostate is over 100 µM; in the assay on HCT-15 colon it was 31.5 µM; with SR leukemia, 5.06 µM; in the assay with SF-295 CNS, 18.9 µM; in the assay on U251 CNS, 4.38 µM; in the assay on HOP-62 NSCLC, 12.3 µM. The TGI in the assay with EKVX NSCLC came out at 29.1 µM; in the assay on SK-MEL-28 melanoma, 13.5 µM; in the assay on UACC-62 melanoma it was 12.6 µM; with M14 melanoma, 7.66 µM.

For `Cc1ncc(C(=O)Nc2ccc(CN3CCN(C)CC3)c(C(F)(F)F)c2)cc1C#Cc1cnc(N)cc1C#N`, the GI50 in the assay on PC-3 prostate was 0.71 µM; with HCT-15 colon, 0.548 µM; in the assay with SR leukemia it was 0.406 µM; in the assay on SF-295 CNS it was 1.88 µM; in the assay on U251 CNS, 1.63 µM; in the assay on HOP-62 NSCLC, 0.573 µM. Also, the GI50 is 1.12 µM in the assay on EKVX NSCLC, 0.0584 µM with SK-MEL-28 melanoma, 0.0518 µM with UACC-62 melanoma and 0.049 µM in the assay with M14 melanoma. Besides, the TGI in the assay on PC-3 prostate worked out at 3.48 µM; in the assay with HCT-15 colon it was 2.71 µM; in the assay with SR leukemia, 6.27 µM; with SF-295 CNS it was 3.98 µM; in the assay with U251 CNS it was 4.02 µM; with HOP-62 NSCLC, 2.91 µM. Besides, the TGI in the assay on EKVX NSCLC was 3.38 µM; in the assay on SK-MEL-28 melanoma it was 1.69 µM; in the assay with UACC-62 melanoma, 0.645 µM; with M14 melanoma, 0.4 µM.

Regarding `O=C(OC[C@H]1O[C@H](OC(=O)c2cc(O)c(O)c(OC(=O)c3cc(O)c(O)c(O)c3)c2)[C@H](OC(=O)c2cc(O)c(O)c(OC(=O)c3cc(O)c(O)c(O)c3)c2)[C@@H](OC(=O)c2cc(O)c(O)c(OC(=O)c3cc(O)c(O)c(O)c3)c2)[C@@H]1OC(=O)c1cc(O)c(O)c(OC(=O)c2cc(O)c(O)c(O)c2)c1)c1cc(O)c(O)c(OC(=O)c2cc(O)c(O)c(O)c2)c1`, the GI50 was 2.33 µM with PC-3 prostate; 6.2 µM in the assay on HCT-15 colon; 1.86 µM in the assay with SR leukemia; 0.941 µM with SF-295 CNS; 1.9 µM in the assay with U251 CNS; 1.78 µM in the assay with HOP-62 NSCLC. Further, the GI50 in the assay with EKVX NSCLC was 5.2 µM; in the assay on SK-MEL-28 melanoma it was 12.8 µM; in the assay on UACC-62 melanoma, 0.985 µM; with M14 melanoma, 5.01 µM. The TGI with PC-3 prostate, with HCT-15 colon, in the assay on SR leukemia, in the assay with SF-295 CNS, in the assay on U251 CNS and in the assay on HOP-62 NSCLC was over 25 µM throughout. Moreover, the TGI with EKVX NSCLC, in the assay on SK-MEL-28 melanoma, with UACC-62 melanoma and in the assay on M14 melanoma was over 25 µM each time.

Turning to `COC(=O)CC[C@H](Cc1ccccc1)NC(=O)c1csc([C@@H](C[C@H](C(C)C)N(C)C(=O)[C@@H](NC(=O)[C@H]2CCCCN2C)C(C)C)OC(C)=O)n1`, the GI50 in the assay with PC-3 prostate is under 0.0025 µM; in the assay on HCT-15 colon it was 0.00685 µM; in the assay on SR leukemia, under 0.0025 µM; with SF-295 CNS, under 0.0025 µM; in the assay on U251 CNS, under 0.0025 µM; in the assay with HOP-62 NSCLC, under 0.0025 µM. Besides, the GI50 was 0.00801 µM with EKVX NSCLC, over 25 µM with SK-MEL-28 melanoma, under 0.0025 µM in the assay on UACC-62 melanoma and under 0.0025 µM in the assay with M14 melanoma. The TGI in the assay with PC-3 prostate was over 25 µM; in the assay with HCT-15 colon, over 25 µM; with SR leukemia, over 8.5 µM; with SF-295 CNS, over 25 µM; in the assay on U251 CNS, over 25 µM; with HOP-62 NSCLC it was over 25 µM. The TGI in the assay on EKVX NSCLC, in the assay with SK-MEL-28 melanoma, with UACC-62 melanoma and in the assay with M14 melanoma was over 25 µM each time.

On to `Cc1cnc(C(=O)Nc2nc3ccc(S(=O)(=O)Nc4ccc(C5(C(F)(F)F)CC5)cc4)cc3[nH]2)cn1`, for which the GI50 was 0.311 µM in the assay on PC-3 prostate; 0.205 µM in the assay with HCT-15 colon; 0.0777 µM in the assay on SR leukemia; 0.237 µM with SF-295 CNS; 0.57 µM with U251 CNS; 0.622 µM in the assay with HOP-62 NSCLC. The GI50 in the assay with EKVX NSCLC was 0.701 µM; in the assay on SK-MEL-28 melanoma it was 1.19 µM; in the assay with UACC-62 melanoma it was 0.372 µM; in the assay on M14 melanoma, 0.328 µM. The TGI with PC-3 prostate is 4.39 µM; with HCT-15 colon, 5.09 µM; with SR leukemia it was over 39.5 µM; with SF-295 CNS it was 3.27 µM; in the assay on U251 CNS it was 5.4 µM; in the assay with HOP-62 NSCLC it was 6.71 µM. Further, the TGI in the assay with EKVX NSCLC came out at 9.34 µM; in the assay on SK-MEL-28 melanoma it was 12.2 µM; in the assay with UACC-62 melanoma, 6.99 µM; with M14 melanoma, 2.74 µM.

Consider `CCCCCCCc1cc2c3c(nc4ccccc42)C(=O)c2cccnc2-c3n1`, for which the GI50 in the assay with PC-3 prostate was 4.39 µM; in the assay with HCT-15 colon it was 0.97 µM; with SR leukemia, 3.02 µM; with SF-295 CNS it was 3.45 µM; with U251 CNS it was 2.96 µM; in the assay on HOP-62 NSCLC, 7.14 µM. Besides, the GI50 is 4.5 µM with EKVX NSCLC, 5.75 µM in the assay on SK-MEL-28 melanoma, 5.41 µM in the assay with UACC-62 melanoma and 2.5 µM in the assay on M14 melanoma. Besides, the TGI with PC-3 prostate turned out to be 10.9 µM; with HCT-15 colon it was 5.58 µM; in the assay with SR leukemia, 10.7 µM; in the assay on SF-295 CNS it was 7.32 µM; in the assay on U251 CNS it was 8.05 µM; in the assay on HOP-62 NSCLC, 20 µM. The TGI in the assay on EKVX NSCLC was determined as 9.14 µM; with SK-MEL-28 melanoma it was 11 µM; in the assay with UACC-62 melanoma it was 10.1 µM; in the assay with M14 melanoma, 6.9 µM.

Source of the values: PubChem BioAssay (NCI).
